Results on 27 compounds are retold here after patent US6506772B1, “Substituted [1,2,4]triazolo[1,5a]pyridine derivatives with activity as adenosine receptor ligands” (Hoffmann-La Roche Inc., priority 2000, dated 2003).

pKi: −log10 of the molar value.

For assay [1], the target named is T1, human adenosine A2A receptor (Homo sapiens, UniProt P29274).
T1 construct: expressed in transfected cells; host or cells: CHO cells, Semliki Forest virus expression system; membrane preparation
Nature of the assay: Human adenosine A2A receptor [3H]-SCH-58261 binding assay. The following applies: for pKi: affinity to human adenosine A2A receptor, read-out: Ki HA2A; for selectivity (A1/A2a): calculated ratio of the affinity to the HA1 receptor to the HA2a receptor.

In assay [2] the target is T2, HA1 adenosine receptor (Homo sapiens, UniProt P30542).
T2 sequence (P30542 1-326): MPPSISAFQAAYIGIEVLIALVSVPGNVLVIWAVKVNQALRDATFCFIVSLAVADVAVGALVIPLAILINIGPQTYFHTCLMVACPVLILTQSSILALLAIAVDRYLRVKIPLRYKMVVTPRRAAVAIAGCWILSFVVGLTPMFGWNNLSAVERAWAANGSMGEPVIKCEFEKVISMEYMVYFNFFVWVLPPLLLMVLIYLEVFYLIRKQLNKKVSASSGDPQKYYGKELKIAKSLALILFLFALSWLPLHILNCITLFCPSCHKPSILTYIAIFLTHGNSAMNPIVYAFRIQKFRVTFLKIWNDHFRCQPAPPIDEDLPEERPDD
As to the kind of experiment: Human adenosine A1 receptor affinity (Ki hA1). The following applies: affinity to human adenosine A1 receptor. The class given is binding.

T1 sequence (P29274 whole entry): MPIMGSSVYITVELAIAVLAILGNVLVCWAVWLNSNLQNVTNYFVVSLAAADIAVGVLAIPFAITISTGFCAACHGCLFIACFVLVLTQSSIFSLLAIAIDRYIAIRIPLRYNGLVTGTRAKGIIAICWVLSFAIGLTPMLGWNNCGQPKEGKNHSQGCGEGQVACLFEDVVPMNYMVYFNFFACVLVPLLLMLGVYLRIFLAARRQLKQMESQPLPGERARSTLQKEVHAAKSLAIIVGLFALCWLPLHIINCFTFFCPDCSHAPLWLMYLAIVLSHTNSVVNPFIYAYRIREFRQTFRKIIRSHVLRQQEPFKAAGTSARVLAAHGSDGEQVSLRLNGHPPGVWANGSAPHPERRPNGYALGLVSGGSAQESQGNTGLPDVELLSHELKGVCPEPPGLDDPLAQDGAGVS

`Cc1ccc(-c2nc3cc(C(=O)NCc4ccccc4Br)cc(N)n3n2)s1` [Example 200, 5-Amino-2-(5-methyl-thiophen-2-yl)-[1,2,4]triazolo[1,5-a]pyridine-7-carboxylic acid 2-bromo-benzylamide]: the negative-log Ki (pKi) was 7.66 in assay [1] and 7.42 in assay [2]. The “selectivity (A1/A2a)” value in assay [1] is reported as 1.7.
Turning to `COc1ccccc1CNC(=O)c1cc(N)n2nc(-c3ccc(C)s3)nc2c1` [Example 201, 5-Amino-2-(5-methyl-thiophen-2-yl)-[1,2,4]triazolo[1,5-a]pyridine-7-carboxylic acid 2-methoxy-benzylamide], in assay [1], the negative logarithm of the Ki (pKi) is 7.50 and the “selectivity (A1/A2a)” value was 1.1. The compound also gave a pKi in assay [2] of 7.48.
In the case of `COc1cc(CNC(=O)c2cc(N)n3nc(-c4ccc(C)s4)nc3c2)cc(OC)c1OC` [Example 202, 5-Amino-2-(5-methyl-thiophen-2-yl)-[1,2,4]triazolo[1,5-a]pyridine-7-carboxylic acid 3,4,5-trimethoxy-benzylamide], in assay [1], the pKi is 6.51 and the “selectivity (A1/A2a)” value was 2.2. Moreover, in assay [2], the negative-log Ki (pKi) was 6.17.
Regarding `Cc1ccc(-c2nc3cc(C(=O)NC4CCc5ccccc54)cc(N)n3n2)s1` (stereo not drawn) [Example 203, 5-Amino-2-(5-methyl-thiophen-2-yl)-[1,2,4]triazolo[1,5-a]pyridine-7-carboxylic acid indan-1-ylamide], in assay [1], the pKi was 7.22 and the “selectivity (A1/A2a)” value is listed as 1.1. For the same compound, the pKi in assay [2] was 7.18.
The corresponding values for `CN(Cc1ccccc1)C(=O)c1cc(N)n2nc(-c3nccs3)nc2c1` [Example 204, 5-Amino-2-thiazol-2-yl-[1,2,4]triazolo[1,5-a]pyridine-7-carboxylic acid benzyl-methyl-amide] are 7.38, 7.8 and 6.49.
The corresponding values for `Nc1cc(C(=O)NCc2ccc(Cl)cc2)cc2nc(-c3nccs3)nn12` [Example 205, 5-Amino-2-thiazol-2-yl-[1,2,4]triazolo[1,5-a]pyridine-7-carboxylic acid 4-chloro-benzylamide] are 6.80, 1.9 and 6.53.
The corresponding values for `Nc1cc(C(=O)NCc2ccc(F)cc2)cc2nc(-c3nccs3)nn12` [Example 206, 5-Amino-2-thiazol-2-yl-[1,2,4]triazolo[1,5-a]pyridine-7-carboxylic acid 4-fluoro-benzylamide] are 6.90, 5.2 and 6.18.
Take `COc1ccc(CNC(=O)c2cc(N)n3nc(-c4nccs4)nc3c2)cc1` [Example 207, 5-Amino-2-thiazol-2-yl-[1,2,4]triazolo[1,5-a]pyridine-7-carboxylic acid 4-methoxy-benzylamide]: in assay [1], the pKi was 6.73 and the “selectivity (A1/A2a)” value was 2.8. For the same compound, in assay [2], the pKi is 6.27.
The corresponding values for `COc1ccc(CNC(=O)c2cc(N)n3nc(-c4nccs4)nc3c2)cc1OC` [Example 208, 5-Amino-2-thiazol-2-yl-[1,2,4]triazolo[1,5-a]pyridine-7-carboxylic acid 3,4-dimethoxy-benzylamide] are 6.50, 5.9 and 5.73.
For the compound `Cc1ccc(-c2nc3cc(C(=O)NCc4ccccc4)cc(N)n3n2)o1` [Example 210, 5-Amino-2-(5-methyl-furan-2-yl)-[1,2,4]triazolo[1,5-a]pyridine-7-carboxylic acid benzylamide], in assay [1], the negative-log Ki (pKi) is 7.31 and the “selectivity (A1/A2a)” value is 6.1. The compound also gave a pKi in assay [2] of 6.52.
For `Cc1ccc(-c2nc3cc(C(=O)NC(C)c4ccccc4)cc(N)n3n2)o1` (stereo not drawn) [Example 211, 5-Amino-2-(5-methyl-furan-2-yl)-[1,2,4]triazolo[1,5-a]pyridine-7-carboxylic acid (1-phenyl-ethyl)-amide], in that order: 7.24, 5.2 and 6.53.
Take `Cc1ccc(-c2nc3cc(C(=O)NCc4ccc(Cl)cc4)cc(N)n3n2)o1` [Example 212, 5-Amino-2-(5-methyl-furan-2-yl)-[1,2,4]triazolo[1,5-a]pyridine-7-carboxylic acid 4-chloro-benzylamide]: the negative-log Ki (pKi) was 6.72 in assay [1] and 6.20 in assay [2]. Moreover, the “selectivity (A1/A2a)” value in assay [1] is recorded as 3.3.
For `Cc1ccc(-c2nc3cc(C(=O)NCc4ccc(F)cc4)cc(N)n3n2)o1` [Example 213, 5-Amino-2-(5-methyl-furan-2-yl)-[1,2,4]triazolo[1,5-a]pyridine-7-carboxylic acid 4-fluoro-benzylamide], in that order: 7.14, 6.46 and 4.7.
The corresponding values for `COc1ccccc1CNC(=O)c1cc(N)n2nc(-c3ccc(C)o3)nc2c1` [Example 214, 5-Amino-2-(5-methyl-furan-2-yl)-[1,2,4]triazolo[1,5-a]pyridine-7-carboxylic acid 2-methoxy-benzylamide] are 7.84, 6.95 and 7.6.
`COc1ccc(CNC(=O)c2cc(N)n3nc(-c4ccc(C)o4)nc3c2)cc1` [Example 215, 5-Amino-2-(5-methyl-furan-2-yl)-[1,2,4]triazolo[1,5-a]pyridine-7-carboxylic acid 4-methoxy-benzylamide]: in assay [1], the pKi is 6.53 and the “selectivity (A1/A2a)” value is given as 5.2. For the same compound, the pKi in assay [2] is 5.81.
With `Nc1cc(C(=O)NCc2ccccc2)cc2nc(-c3ccccc3)nn12` [Example 216, 5-Amino-2-phenyl-[1,2,4]triazolo[1,5-a]pyridine-7-carboxylic acid benzylamide], in assay [1], the pKi is 7.19 and the “selectivity (A1/A2a)” value is 2.3. Further, the pKi in assay [2] was 6.83.
The corresponding values for `CC(NC(=O)c1cc(N)n2nc(-c3ccccc3)nc2c1)c1ccccc1` (stereo not drawn) [Example 217, 5-Amino-2-phenyl-[1,2,4]triazolo[1,5-a]pyridine-7-carboxylic acid (1-phenyl-ethyl)-amide] are 7.07, 0.9 and 7.14.
For `Nc1cc(C(=O)NCc2ccccc2Cl)cc2nc(-c3ccccc3)nn12` [Example 218, 5-Amino-2-phenyl-[1,2,4]triazolo[1,5-a]pyridine-7-carboxylic acid 2-chloro-benzylamide], in that order: 7.33, 2.5 and 6.93.
For `Nc1cc(C(=O)NCc2ccccc2Br)cc2nc(-c3ccccc3)nn12` [Example 219, 5-Amino-2-phenyl-[1,2,4]triazolo[1,5-a]pyridine-7-carboxylic acid 2-bromo-benzylamide], in assay [1], the pKi was 7.52 and the “selectivity (A1/A2a)” value is listed as 4.4. The compound also gave a pKi in assay [2] of 6.87.
For `COc1ccccc1CNC(=O)c1cc(N)n2nc(-c3ccccc3)nc2c1` [Example 220, 5-Amino-2-phenyl-[1,2,4]triazolo[1,5-a]pyridine-7-carboxylic acid 2-methoxy-benzylamide], in that order: 7.53, 1.7 and 7.32.
For `CCN(C(=O)c1cc(N)n2nc(-c3ccoc3)nc2c1)C(C)C` [Example 221, 5-Amino-2-furan-3-yl-[1,2,4]triazolo[1,5-a]pyridine-7-carboxylic acid ethyl-isopropyl-amide], in that order: 6.51, 7.3 and 5.65.
The corresponding values for `CN(C(=O)c1cc(N)n2nc(-c3ccoc3)nc2c1)C1CCCCC1` [Example 222, 5-Amino-2-furan-3-yl-[1,2,4]triazolo[1,5-a]pyridine-7-carboxylic acid cyclohexyl-methyl-amide] are 6.62, 8.5 and 5.69.
In the case of `Nc1cc(C(=O)NC2CCc3ccccc32)cc2nc(-c3ccoc3)nn12` (stereo not drawn) [Example 223, 5-Amino-2-furan-3-yl-[1,2,4]triazolo[1,5-a]pyridine-7-carboxylic acid indan-1-ylamide], the figures for the negative logarithm of the Ki (pKi) in assay [1] and in assay [2] were 7.36 and 6.38, respectively. Further, the “selectivity (A1/A2a)” value in assay [1] is 9.4.
The corresponding values for `Nc1cc(C(=O)NCc2ccccc2)cc2nc(-c3ccoc3)nn12` [Example 224, 5-Amino-2-furan-3-yl-[1,2,4]triazolo[1,5-a]pyridine-7-carboxylic acid benzylamide] are 7.32, 6.67 and 4.5.
In the case of `CC(NC(=O)c1cc(N)n2nc(-c3ccoc3)nc2c1)c1ccccc1` (stereo not drawn) [Example 225, 5-Amino-2-furan-3-yl-[1,2,4]triazolo[1,5-a]pyridine-7-carboxylic acid (1-phenyl-ethyl)-amide], in assay [1], the pKi is 6.99 and the “selectivity (A1/A2a)” value was 1.2. The compound also gave a negative logarithm of the Ki (pKi) in assay [2] of 6.90.
Turning to `CN(Cc1ccccc1)C(=O)c1cc(N)n2nc(-c3ccoc3)nc2c1` [Example 226, 5-Amino-2-furan-3-yl-[1,2,4]triazolo[1,5-a]pyridine-7-carboxylic acid benzyl-methyl-amide], in assay [1], the pKi was 6.92 and the “selectivity (A1/A2a)” value is listed as 8.4. The negative logarithm of the Ki (pKi) in assay [2] was 5.99.
For `Nc1cc(C(=O)NCc2ccc(F)cc2)cc2nc(-c3ccoc3)nn12` [Example 227, 5-Amino-2-furan-3-yl-[1,2,4]triazolo[1,5-a]pyridine-7-carboxylic acid 4-fluoro-benzylamide], in that order: 6.72, 3.8 and 6.13.

In general, pKi refers to −log10 of the Ki, conventionally taken in molar units.
